Values quoted from earlier work, collected in publication PMC10166914, “GTN057, a komaroviquinone derivative, induced myeloma cells' death in vivo and inhibited c‐MET tyrosine kinase” (Cancer Medicine, 2023).

Test system: MUM24 cells
Design: method as in PMID 28882484
Settings: read-out: IC50 antiproliferative activity; cited from earlier work

## COc1c(O)c2c(c(O)c1C(C)C)C(=O)CC1C(C)(C)CCC[C@]1(O)C2 (stereo partly shown) [GTN054]
  IC50: 6.13 µM
